According to ChEMBL document CHEMBL4507291 (2021):

How the values were obtained:
[1] = biological target: Tyrosine-protein kinase Yes (Homo sapiens) (UniProt P07947)
[2] = biological target: Rho-associated protein kinase 1 (Homo sapiens) (UniProt Q13464)
[3] = biological target: T1, Beta-adrenergic receptor kinase 1 (Homo sapiens) (UniProt P25098)
T1 sequence (whole entry): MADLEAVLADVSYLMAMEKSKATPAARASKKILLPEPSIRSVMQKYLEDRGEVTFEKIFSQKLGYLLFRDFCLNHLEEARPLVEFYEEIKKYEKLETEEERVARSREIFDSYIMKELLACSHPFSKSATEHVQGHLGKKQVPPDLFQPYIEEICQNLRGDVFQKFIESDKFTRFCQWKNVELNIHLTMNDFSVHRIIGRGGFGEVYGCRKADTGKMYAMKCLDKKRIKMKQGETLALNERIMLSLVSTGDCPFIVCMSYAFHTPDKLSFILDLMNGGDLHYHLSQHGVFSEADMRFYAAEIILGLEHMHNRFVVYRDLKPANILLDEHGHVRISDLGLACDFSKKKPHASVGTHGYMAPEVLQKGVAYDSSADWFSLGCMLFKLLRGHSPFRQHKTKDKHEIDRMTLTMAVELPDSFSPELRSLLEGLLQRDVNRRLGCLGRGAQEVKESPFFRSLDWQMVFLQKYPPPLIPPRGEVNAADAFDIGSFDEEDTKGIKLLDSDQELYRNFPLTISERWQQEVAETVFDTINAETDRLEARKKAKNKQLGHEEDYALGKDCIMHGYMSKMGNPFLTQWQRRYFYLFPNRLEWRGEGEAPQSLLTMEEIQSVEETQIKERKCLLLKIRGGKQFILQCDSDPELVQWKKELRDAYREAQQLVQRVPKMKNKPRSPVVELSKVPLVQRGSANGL

[4] = system: Tyrosine-protein kinase ABL1 (Homo sapiens), P00519 [Q252H]
[5] = biological target: Cyclin-dependent kinase 18 (Homo sapiens) (UniProt Q07002)
Sequence of Cyclin-dependent kinase 18 (Homo sapiens) (Q07002 whole entry): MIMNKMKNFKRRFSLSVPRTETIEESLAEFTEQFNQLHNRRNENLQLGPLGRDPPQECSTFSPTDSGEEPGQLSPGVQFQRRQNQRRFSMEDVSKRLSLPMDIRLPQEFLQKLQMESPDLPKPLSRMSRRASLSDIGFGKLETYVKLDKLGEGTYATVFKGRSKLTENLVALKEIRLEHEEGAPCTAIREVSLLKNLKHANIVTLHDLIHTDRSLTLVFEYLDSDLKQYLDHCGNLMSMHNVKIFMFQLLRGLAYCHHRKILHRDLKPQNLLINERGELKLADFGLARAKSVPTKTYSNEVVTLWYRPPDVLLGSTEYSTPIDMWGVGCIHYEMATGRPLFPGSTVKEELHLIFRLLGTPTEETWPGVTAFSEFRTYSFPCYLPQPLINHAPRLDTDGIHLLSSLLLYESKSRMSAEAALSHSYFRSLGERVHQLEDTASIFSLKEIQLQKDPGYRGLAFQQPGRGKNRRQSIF

[6] = biological target: Tyrosine-protein kinase receptor UFO (Homo sapiens) (UniProt P30530)
Sequence of Tyrosine-protein kinase receptor UFO (Homo sapiens) (P30530 whole entry): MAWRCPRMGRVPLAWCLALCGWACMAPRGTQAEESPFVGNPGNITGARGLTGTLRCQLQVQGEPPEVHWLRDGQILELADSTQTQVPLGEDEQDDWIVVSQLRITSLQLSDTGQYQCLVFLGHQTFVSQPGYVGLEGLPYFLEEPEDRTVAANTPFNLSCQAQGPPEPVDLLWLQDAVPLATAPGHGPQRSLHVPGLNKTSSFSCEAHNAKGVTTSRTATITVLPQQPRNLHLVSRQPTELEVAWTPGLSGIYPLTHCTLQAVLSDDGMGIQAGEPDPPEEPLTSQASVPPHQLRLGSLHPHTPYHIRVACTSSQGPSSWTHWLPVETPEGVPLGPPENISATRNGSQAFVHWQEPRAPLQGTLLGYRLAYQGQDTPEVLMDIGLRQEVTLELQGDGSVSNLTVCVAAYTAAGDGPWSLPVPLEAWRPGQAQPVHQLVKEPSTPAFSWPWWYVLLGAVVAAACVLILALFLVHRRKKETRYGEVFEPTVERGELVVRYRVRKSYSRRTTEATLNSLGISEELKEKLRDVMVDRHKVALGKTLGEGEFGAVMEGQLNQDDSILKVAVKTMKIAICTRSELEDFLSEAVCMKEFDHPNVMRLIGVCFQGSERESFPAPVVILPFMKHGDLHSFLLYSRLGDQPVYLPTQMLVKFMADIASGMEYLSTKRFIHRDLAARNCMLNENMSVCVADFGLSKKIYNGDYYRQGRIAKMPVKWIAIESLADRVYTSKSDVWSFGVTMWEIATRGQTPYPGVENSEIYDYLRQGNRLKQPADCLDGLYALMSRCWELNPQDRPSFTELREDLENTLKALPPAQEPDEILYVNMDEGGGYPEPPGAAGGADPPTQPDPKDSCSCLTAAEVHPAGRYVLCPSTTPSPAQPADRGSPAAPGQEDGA

[7] = biological target: T2, Serine/threonine-protein kinase D2 (Homo sapiens) (UniProt Q9BZL6)
T2 sequence (whole entry): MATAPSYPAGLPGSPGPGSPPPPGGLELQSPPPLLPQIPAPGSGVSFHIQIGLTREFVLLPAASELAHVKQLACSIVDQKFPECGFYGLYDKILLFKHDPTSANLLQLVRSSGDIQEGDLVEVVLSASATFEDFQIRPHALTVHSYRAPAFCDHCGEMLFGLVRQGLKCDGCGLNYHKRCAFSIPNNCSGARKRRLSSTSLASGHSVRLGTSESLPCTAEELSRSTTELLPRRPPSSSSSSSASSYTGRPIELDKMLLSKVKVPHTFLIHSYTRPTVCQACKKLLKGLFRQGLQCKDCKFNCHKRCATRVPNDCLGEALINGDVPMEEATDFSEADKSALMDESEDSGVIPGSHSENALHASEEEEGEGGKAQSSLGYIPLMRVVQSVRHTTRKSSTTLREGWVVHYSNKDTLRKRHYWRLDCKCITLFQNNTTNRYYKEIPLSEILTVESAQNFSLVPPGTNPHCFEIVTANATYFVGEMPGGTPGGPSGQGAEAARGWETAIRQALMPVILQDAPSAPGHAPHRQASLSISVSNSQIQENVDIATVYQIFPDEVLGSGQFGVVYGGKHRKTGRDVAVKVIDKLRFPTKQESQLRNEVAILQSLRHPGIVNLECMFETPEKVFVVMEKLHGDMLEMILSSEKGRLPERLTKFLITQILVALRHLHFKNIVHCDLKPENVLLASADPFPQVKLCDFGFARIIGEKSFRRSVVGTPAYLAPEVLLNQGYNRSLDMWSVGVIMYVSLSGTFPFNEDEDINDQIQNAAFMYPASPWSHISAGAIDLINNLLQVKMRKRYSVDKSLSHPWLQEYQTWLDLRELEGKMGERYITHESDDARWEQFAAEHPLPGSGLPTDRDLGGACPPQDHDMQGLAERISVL

[8] = system: T3, Receptor-type tyrosine-protein kinase FLT3 (Homo sapiens), P36888 [D835Y]
T3 sequence (whole entry): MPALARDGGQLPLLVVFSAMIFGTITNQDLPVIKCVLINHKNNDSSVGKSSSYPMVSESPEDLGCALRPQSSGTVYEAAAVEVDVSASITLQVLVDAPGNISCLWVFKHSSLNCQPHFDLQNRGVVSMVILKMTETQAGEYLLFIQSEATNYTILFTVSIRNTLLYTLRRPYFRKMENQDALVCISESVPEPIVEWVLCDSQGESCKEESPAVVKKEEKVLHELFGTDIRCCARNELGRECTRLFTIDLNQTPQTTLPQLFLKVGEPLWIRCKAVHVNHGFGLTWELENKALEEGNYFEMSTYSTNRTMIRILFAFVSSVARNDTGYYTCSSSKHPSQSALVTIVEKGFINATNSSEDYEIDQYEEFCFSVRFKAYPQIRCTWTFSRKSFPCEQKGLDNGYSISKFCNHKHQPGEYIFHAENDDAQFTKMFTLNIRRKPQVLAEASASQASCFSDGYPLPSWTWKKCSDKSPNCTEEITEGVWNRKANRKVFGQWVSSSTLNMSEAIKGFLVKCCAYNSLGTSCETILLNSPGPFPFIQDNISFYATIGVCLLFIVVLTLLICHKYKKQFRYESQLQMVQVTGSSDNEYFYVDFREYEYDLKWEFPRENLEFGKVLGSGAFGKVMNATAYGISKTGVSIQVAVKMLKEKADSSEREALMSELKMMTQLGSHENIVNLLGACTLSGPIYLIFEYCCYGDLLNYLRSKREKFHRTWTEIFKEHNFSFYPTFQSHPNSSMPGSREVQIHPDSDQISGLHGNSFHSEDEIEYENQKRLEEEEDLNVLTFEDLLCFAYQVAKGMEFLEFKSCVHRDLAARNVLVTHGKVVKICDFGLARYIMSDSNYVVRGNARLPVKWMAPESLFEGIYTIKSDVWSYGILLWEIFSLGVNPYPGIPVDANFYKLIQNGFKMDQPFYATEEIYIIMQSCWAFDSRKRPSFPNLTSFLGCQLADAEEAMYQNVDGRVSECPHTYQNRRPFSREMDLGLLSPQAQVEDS

[9] = Compound concentration 100.0 nM
[10] = Compound concentration 1000.0 nM

Measured: residual activity

Sequence of Rho-associated protein kinase 1 (Homo sapiens) (Q13464 2-1354 limits assumed): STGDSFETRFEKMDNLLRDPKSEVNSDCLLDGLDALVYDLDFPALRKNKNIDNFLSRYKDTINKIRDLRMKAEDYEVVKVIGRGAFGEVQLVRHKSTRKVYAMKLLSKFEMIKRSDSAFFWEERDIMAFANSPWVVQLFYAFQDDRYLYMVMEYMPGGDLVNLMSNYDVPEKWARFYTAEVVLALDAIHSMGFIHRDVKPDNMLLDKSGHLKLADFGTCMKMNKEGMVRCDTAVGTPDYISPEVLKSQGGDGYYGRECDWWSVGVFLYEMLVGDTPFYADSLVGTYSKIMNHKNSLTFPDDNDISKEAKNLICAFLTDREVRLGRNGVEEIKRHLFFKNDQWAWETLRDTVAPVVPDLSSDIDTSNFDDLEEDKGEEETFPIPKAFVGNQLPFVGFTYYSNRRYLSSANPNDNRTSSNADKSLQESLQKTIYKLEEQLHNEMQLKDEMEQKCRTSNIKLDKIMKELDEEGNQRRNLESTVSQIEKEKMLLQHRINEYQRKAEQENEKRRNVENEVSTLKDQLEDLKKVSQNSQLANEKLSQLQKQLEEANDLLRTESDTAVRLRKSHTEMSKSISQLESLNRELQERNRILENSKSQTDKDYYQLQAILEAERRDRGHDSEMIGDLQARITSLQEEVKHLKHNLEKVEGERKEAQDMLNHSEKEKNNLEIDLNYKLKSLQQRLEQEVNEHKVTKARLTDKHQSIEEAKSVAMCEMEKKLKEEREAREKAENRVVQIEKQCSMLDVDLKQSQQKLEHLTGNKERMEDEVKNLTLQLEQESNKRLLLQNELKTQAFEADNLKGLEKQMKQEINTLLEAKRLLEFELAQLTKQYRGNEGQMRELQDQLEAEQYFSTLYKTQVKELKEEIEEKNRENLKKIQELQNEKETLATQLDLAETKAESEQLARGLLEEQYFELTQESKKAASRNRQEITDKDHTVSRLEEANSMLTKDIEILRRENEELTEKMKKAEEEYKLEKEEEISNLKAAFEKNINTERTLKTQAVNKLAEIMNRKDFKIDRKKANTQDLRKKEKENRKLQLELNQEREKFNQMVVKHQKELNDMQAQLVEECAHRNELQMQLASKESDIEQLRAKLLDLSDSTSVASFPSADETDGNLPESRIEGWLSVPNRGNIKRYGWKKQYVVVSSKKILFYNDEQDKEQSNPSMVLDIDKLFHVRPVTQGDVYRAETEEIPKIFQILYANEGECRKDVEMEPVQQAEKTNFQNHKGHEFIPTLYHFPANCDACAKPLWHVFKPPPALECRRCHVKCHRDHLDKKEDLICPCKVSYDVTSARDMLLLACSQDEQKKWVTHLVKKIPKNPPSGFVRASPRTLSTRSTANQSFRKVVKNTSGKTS
Sequence of Tyrosine-protein kinase Yes (Homo sapiens) (P07947 2-543 limits assumed): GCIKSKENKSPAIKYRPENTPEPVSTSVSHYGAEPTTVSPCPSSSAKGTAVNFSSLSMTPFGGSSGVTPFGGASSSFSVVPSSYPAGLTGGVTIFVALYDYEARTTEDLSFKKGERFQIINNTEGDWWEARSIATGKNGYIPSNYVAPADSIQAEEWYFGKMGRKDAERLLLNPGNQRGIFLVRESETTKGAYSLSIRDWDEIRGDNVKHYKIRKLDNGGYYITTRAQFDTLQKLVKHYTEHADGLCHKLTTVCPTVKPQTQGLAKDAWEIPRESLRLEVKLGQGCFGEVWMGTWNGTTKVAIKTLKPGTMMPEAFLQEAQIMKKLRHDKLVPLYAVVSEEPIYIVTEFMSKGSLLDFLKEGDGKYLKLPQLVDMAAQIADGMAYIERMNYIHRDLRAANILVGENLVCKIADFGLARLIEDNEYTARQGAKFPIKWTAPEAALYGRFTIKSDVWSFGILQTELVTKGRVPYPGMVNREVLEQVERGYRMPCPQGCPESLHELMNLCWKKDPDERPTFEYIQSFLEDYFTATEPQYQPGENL

C[C@@H]1CN(c2cc(-c3n[nH]c4ccc(OC5(C)CC5)cc34)ncn2)C[C@H](C)O1 [MLi-2]
inactive: [1]; [9] 80% | [2]; [9] 80% | [3]; [9] 86% | [4]; [9] 64% | [5]; [9] 100% | [6]; [9] 100% | [7]; [9] 100% | [8]; [9] 100%

C[C@@H]1CN(c2cc(-c3nn(C)c4ccc(OC5(C)CC5)cc34)ncn2)C[C@H](C)O1 [MLi-2-NC]
inactive: [1]; [10] 98% | [2]; [10] 100% | [3]; [10] 68% | [4]; [10] 58% | [5]; [10] 100% | [6]; [10] 100% | [7]; [10] 90% | [8]; [10] 100%
